Experimental data as given in paper PMC6017976, “Enzyme Kinetics and Molecular Docking Studies on Cytochrome 2B6, 2C19, 2E1, and 3A4 Activities by Sauchinone” (Molecules : A Journal of Synthetic Chemistry and Natural …, 2018).

Legend:
CYP2A6 = target: T1, CYP2A6 (Homo sapiens, UniProt P11509); experiment: Reversible inhibition (RI) of CYP2A6 activity in HLMs (cocktail probe assay); details: read-out: IC50 on CYP2A6 activity (RI); HLMs; reversible inhibition; 5 μM coumarin; 30 min incubation; inhibitor 0–300 μM
T1 sequence (P11509 1-494): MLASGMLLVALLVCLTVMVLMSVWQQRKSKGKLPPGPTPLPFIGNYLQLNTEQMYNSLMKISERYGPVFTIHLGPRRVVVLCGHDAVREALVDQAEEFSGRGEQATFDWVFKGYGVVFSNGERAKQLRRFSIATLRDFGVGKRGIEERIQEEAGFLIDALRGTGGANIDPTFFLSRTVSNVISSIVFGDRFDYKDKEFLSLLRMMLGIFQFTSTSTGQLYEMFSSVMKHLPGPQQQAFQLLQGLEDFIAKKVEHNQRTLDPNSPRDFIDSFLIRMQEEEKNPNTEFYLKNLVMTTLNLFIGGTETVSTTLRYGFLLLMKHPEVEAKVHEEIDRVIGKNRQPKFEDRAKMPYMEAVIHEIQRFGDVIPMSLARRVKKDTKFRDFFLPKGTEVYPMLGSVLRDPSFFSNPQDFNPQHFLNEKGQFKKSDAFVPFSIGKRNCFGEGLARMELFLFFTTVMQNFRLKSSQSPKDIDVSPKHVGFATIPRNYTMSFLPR

in vivo = details: male, ICR, mouse
Description: (§1) For analysis of sibutramine, a mobile phase was made, consisting of 10 mM ammonium acetate adjusted to pH 4 with acetic acid: acetonitrile (94:6, v/v) and was eluted at 0.2 mL/min. […] Other parameters of mass spectrometers were the same as those used for analysis of metabolites of CYP substrates.
(§2) Male ICR mice (5 weeks old, weight of 20–25 g) were purchased from the Charles River Company Korea (Orient, Seoul, Korea). […] They were provided free access to food and water. These mice were allowed to acclimate to these conditions for three days prior to inclusion in the experiments.
(§3) Surgical procedures for mice were conducted under tiletamine HCl and zolazepam HCl anesthesia by intramuscular injection. The carotid artery (for blood sampling) cannulation was carried out using catheters (BASi, West Lafayette, IN, USA). Drug administration and blood sampling were performed at 5 h after surgery [55]. […] Other procedures were the same as those used for the sibutramine pharmacokinetic study.
(§4) AUC was calculated using the trapezoidal rule method. Standard methods [56] were used to calculate pharmacokinetic parameters using non-compartmental analysis (WinNonlin 2.1; Pharmasight Corp., Mountain View, CA, USA). Cmax and Tmax were read reversibly from extrapolated data.

[1] = male, ICR, mouse, in vivo
Description: as §1, §2, §3, §4

N[C@@H]1C[C@H]1c1ccccc1 (racemic) [tranylcypromine, reference compound]
IC50 (CYP2A6): 1990 nM

COC(=O)[C@H](c1ccccc1Cl)N1CCc2sccc2C1 [Clopidogrel, clopidogrel]
CL/F (in vivo): 3.81 ± 0.514 mL/min/kg
Tmax (in vivo): 0.25 h
half-life (in vivo): 2.18 ± 0.112 h
CL/F (in vivo; po): 2.87 ± 0.225 mL/min/kg
Tmax (in vivo; po): 0.25 h
half-life (in vivo; po): 1.77 ± 0.427 h
AUC greater with sauchinone than drug alone (by %) [1]: 31.0%
CL/F slower with sauchinone than drug alone (by %) [1]: 24.7%
Cmax higher with sauchinone than drug alone (by %) [1]: 17.3%
t1/2 smaller with sauchinone than drug alone (by %) [1]: 19.1%
